Measurements taken from ChEMBL document CHEMBL2074274, “Transport of quinolone antibacterial drugs by human P-glycoprotein expressed in a kidney epithelial cell line, LLC-PK1” (J Pharmacol Exp Ther, 1997).
One block for each compound: values may come before it.

Key:
Assay type in all cases: functional, cell-based
[1] = molecular target: T1, ATP-dependent translocase ABCB1 (Homo sapiens, UniProt P08183); experiment: TP_TRANSPORTER: inhibition of Levofloxacin transepithelial transport (basal to apical) (Levofloxacin: 100 uM, PAH: 2500 uM) in MDR1-expressing LLC-PK1 cells; conditions: pig, llc-pk1, 2500 µM
[2] = molecular target: T1, ATP-dependent translocase ABCB1; experiment: TP_TRANSPORTER: inhibition of Daunorubicin transepithelial transport (basal to apical) (Daunorubicin: 0.1 uM, Levofloxacin: 3000 uM) in MDR1-expressing LLC-PK1 cells; conditions: pig, llc-pk1, 3000 µM
[3] = molecular target: T1, ATP-dependent translocase ABCB1; experiment: TP_TRANSPORTER: inhibition of DU-6895a transepithelial transport (basal to apical) (DU-6895a: 100 uM, Levofloxacin: 3000 uM) in MDR1-expressing LLC-PK1 cells; conditions: pig, llc-pk1, 3000 µM
[4] = system: C[C@H]1COc2c(N3CCN(C)CC3)c(F)cc3c(=O)c(C(=O)O)cn1c23; experiment: TP_TRANSPORTER: transepithelial transport (basal to apical) in MDR1-expressing LLC-PK1 cells

T1 sequence (P08183 whole entry): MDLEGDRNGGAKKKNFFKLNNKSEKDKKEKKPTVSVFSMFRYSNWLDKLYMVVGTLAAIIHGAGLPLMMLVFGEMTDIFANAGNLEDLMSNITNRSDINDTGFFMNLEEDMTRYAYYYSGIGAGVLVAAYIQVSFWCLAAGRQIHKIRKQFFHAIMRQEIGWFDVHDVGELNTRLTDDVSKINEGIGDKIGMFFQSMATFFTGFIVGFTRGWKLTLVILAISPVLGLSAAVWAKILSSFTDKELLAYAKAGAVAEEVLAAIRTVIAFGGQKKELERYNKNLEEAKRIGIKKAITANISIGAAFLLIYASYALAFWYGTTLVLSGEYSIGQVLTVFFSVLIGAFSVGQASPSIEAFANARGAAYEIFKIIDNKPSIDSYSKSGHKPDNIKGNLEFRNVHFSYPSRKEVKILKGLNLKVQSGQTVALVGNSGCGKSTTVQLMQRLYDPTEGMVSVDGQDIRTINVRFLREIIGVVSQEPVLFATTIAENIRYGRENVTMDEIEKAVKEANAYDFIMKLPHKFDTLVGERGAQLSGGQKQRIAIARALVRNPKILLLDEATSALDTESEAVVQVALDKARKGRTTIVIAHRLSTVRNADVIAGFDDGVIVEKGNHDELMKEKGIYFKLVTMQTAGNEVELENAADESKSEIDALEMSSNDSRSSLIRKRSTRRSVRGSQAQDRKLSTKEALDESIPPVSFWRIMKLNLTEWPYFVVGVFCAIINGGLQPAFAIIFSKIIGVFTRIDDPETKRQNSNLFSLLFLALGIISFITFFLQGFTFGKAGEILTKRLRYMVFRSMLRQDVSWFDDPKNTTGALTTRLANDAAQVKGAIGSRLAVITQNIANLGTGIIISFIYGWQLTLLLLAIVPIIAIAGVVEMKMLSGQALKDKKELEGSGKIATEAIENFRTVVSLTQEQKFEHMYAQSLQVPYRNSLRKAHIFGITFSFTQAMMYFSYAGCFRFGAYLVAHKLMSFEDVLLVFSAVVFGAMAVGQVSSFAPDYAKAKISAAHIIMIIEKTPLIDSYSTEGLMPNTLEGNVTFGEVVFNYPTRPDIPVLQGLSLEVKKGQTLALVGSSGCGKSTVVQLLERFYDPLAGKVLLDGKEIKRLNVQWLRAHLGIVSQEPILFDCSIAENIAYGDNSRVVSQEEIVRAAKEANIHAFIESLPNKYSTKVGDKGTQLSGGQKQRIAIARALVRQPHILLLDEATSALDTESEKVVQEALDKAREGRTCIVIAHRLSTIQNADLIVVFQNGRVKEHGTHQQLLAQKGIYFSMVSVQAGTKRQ

Activity [1]: is not an inhibitor [-]
Compound: Nc1ccc(C(=O)NCC(=O)O)cc1 [AMINOHIPPURIC ACID]

Activity [2]: inhibitor [+] | Activity [3]: inhibitor [+]
Compound: C[C@H]1COc2c(N3CCN(C)CC3)c(F)cc3c(=O)c(C(=O)O)cn1c23.C[C@H]1COc2c(N3CCN(C)CC3)c(F)cc3c(=O)c(C(=O)O)cn1c23.O [LEVOFLOXACIN]

Compound: ATP-dependent translocase ABCB1 (Homo sapiens)
Km [4]: 3 mM
